Source: patent US4605614A, “Method for measuring plasmin” (Nitto Boseki Co., Ltd., priority 1981, dated 1986)
Where a SMILES comes first, the peptide text is derived from it.

Assays:
Plasmin (PL) = Plasmin (PL) (Sus scrofa, UniProt P06867); type: biochemical, Pig; details: TABLE 3, PNA substrates; So = 0.54 mmole/l; pH 7.4; 37° C., 10 minutes; 0.32 CU/ml
Description: (§1) (1) Substrate solution concentration: 35 mmole/liter H2 O
(§2) (2) Buffer: Tris-hydrochloric acid buffer 50 mmole/l, NaCl 150 mmole/l (0.875%) was employed, and the pH for reaction was as follows depending on the enzyme.
Plasmin Pig Sigma (U.S.A.)
(§3) 0.5 ml of the buffer solution and 0.05 ml of the enzyme reagent were taken into a silicon-treated hard glass test tube or a plastic test tube, and preheated in a constant temperature bath at 37° C. for 5 minutes. Thereafter, 0.1 ml of the substrate solution was added to effect the enzymatic reaction at 37° C. for 10 minutes. Exactly after 10 minutes, 2.5 ml of the reaction terminating solution or the terminating and color developing reagent solution was added to terminate the enzymatic reaction, and after allowing to stand at 25° C. for 10 minutes, the absorbance at 405 nm or 645 nm was measured, in which [drawing 49]

Factor-Xa (FXa) = Factor-Xa (FXa) (Bos taurus, UniProt P00743); type: biochemical, Cow; details: TABLE 3, PNA substrates; So = 0.54 mmole/l; pH 8.4; 37° C., 10 minutes; 0.4 U/ml
Chain of Factor-Xa (FXa) (P00743 41-180): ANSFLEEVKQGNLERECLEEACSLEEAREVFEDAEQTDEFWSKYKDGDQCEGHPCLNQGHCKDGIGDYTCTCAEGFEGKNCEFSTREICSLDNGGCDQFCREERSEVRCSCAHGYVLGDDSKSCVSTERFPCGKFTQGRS
Chain of Factor-Xa (FXa) (P00743 234-492): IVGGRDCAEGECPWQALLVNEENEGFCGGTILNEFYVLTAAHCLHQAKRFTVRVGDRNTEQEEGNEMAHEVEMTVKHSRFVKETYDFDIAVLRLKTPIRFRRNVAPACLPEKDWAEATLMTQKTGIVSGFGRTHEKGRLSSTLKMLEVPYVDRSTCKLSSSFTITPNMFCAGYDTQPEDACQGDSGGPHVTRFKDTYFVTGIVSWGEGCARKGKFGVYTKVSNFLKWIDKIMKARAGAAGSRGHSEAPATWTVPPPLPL
Description: (§4) The specificities of the novelly synthesized substrates were tested by reacting them with various enzymes respectively.
as §1, §2
(§5) 2,6-Xylenol 7.0 mmole+NaIO4 1.5 mmole/0.2N KOH
as §3

Urokinase (UK) = Urokinase (UK) (Homo sapiens, UniProt P00749); type: biochemical; details: TABLE 3, PNA substrates; So = 0.54 mmole/l; pH 8.2; 37° C., 10 minutes; 1000 IU/ml
Description: as §4, §1, §2, §5, §3

plasmin (pig) [1] = target: T1, plasmin (pig) (Sus scrofa, UniProt P06867); details: prior substrate; enzyme not stated in the sentence (plasmin substrates); cited from earlier work
T1 sequence (P06867 97-809): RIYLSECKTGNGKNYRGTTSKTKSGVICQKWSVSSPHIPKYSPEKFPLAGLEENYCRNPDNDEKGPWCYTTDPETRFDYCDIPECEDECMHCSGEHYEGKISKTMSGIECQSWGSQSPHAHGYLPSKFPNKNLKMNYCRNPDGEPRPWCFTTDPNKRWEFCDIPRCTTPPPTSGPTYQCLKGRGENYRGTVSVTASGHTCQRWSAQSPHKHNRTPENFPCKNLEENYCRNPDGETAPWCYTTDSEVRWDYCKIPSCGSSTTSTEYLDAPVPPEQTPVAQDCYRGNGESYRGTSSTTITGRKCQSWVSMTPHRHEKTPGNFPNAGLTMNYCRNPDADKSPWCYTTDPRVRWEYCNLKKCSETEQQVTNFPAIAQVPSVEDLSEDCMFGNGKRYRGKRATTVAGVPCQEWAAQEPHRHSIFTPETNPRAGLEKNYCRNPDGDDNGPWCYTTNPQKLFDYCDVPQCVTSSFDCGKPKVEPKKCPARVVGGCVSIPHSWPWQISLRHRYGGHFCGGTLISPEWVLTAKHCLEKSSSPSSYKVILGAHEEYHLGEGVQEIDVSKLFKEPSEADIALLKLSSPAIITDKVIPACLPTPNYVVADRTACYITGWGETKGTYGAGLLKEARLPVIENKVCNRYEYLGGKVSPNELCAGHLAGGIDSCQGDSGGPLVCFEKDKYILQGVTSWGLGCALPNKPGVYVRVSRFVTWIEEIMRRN

plasmin (pig) [2] = target: T1, plasmin (pig); assay: Km, Vmax and Vmax/Km of substrates for plasmin (pig); type: biochemical, Porcine (pig); details: for Vmax (× 10^-6) [mole/min/Cu]: Porcine Plasmin, comparison table in description; for V/Km (× 10^-3) / Vmax (× 10^7): TABLE 1, PNA substrates, plasmin (pig); for Vmax (× 10^7): 405 nm; for Relative ratio: TABLE 1, V/Km of each sample divided by that of S2251
Excerpt: The substrates produced by the above examples were used in the measurement of plasmin as follows: The principle of this measurement comprises quantitatively analyzing the decomposition product p-nitroaniline or 3-carboxy-4-hydroxyaniline produced by the enzymatic hydrolysis, by measuring the absorbance (O.D.) directly at 405 nm in the case of p-nitroaniline and, in the case of the 3-carboxy-4-hydroxyaniline at 615 nm after condensing it with 2,6-xylenol in the presence of an oxidant to develop a color.
For the measurements of these constants, the following method is adopted:
The enzyme and the substrate are mixed in a buffer solution and subjected to the hydrolysis for 30 seconds. The concentration of the substrate [S] is changed and the enzyme concentration is maintained constant. By measuring the absorbance (O.D.), the initial velocity of the hydrolysis can be determined. Where 1/V is plotted as a function of 1/[S], there is obtained a Lineweaver and Burk's linea from which graph the Vmax and Km can be determined.

[3] = system: coagulation and linear dissolution related enzymes such as thrombin, Factor Xa, UK; details: prior substrate, cited from earlier work
Kallikrein (KL) = Kallikrein (KL) (Sus scrofa, UniProt P00752); type: biochemical, Pig; details: TABLE 3, PNA substrates; So = 0.54 mmole/l; pH 7.9; 37° C., 10 minutes; 1.0 BAEE-U/ml
Chain of Kallikrein (KL) (P00752 8-246): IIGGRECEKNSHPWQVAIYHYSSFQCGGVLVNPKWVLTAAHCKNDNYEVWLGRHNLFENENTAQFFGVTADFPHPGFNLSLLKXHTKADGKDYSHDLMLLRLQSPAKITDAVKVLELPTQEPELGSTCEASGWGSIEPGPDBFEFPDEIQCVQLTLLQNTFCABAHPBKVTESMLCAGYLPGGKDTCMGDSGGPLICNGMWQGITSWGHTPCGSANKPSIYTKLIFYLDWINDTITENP
Description: as §4, §1, §2, §5, §3

Thrombin (TH) = Thrombin (TH) (Bos taurus, UniProt P00735); type: biochemical, Cow; details: TABLE 3, PNA substrates; So = 0.54 mmole/l; pH 8.4; 37° C., 10 minutes; 1.0 NIH/ml
Chain of Thrombin (TH) (P00735 44-625): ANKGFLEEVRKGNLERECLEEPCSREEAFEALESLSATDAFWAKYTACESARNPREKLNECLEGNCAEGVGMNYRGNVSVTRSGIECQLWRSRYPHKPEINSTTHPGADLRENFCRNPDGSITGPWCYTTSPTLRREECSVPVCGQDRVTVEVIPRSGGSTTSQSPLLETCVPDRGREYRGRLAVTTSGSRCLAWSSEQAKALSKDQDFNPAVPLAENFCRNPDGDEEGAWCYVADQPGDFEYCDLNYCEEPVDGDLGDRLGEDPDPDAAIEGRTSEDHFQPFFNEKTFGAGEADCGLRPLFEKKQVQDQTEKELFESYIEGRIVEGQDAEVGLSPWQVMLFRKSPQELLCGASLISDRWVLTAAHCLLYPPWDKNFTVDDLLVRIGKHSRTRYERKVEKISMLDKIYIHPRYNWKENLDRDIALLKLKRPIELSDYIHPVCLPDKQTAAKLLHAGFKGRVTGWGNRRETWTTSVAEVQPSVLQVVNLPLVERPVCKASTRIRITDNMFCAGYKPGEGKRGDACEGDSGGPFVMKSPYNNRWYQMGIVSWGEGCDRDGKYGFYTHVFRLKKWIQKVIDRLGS
Description: as §4, §1, §2, §5, §3

Human Thrombin = details: read-out: Michaelis's constant (Km); cited from earlier work
Human Plasmin = details: read-out: Michaelis's constant (Km); cited from earlier work

Chain of Plasmin (PL) (P06867 97-809): as the sequence (P06867 97-809) above

| Structure (SMILES) | Selectivity PL, absorbance (O.D.) at 405 nm (Plasmin (PL)) [O.D.] | Selectivity FXa, absorbance (O.D.) at 405 nm (Factor-Xa (FXa)) [O.D.] | Selectivity UK, absorbance (O.D.) at 405 nm (Urokinase (UK)) [O.D.] | Km value compared with S-2251 (in words) (plasmin (pig) [1]) | Vmax (× 10^-6) [mole/min/Cu] (plasmin (pig) [2]) | V/Km (× 10^-3) (plasmin (pig) [2]) | Vmax (× 10^7) (plasmin (pig) [2]) | Relative ratio (plasmin (pig) [2]) | reaction with coagulation and linear dissolution related enzymes such as thrombin, Factor Xa, UK ([3]; in words) | Selectivity KL, absorbance (O.D.) at 405 nm (Kallikrein (KL)) [O.D.] | Selectivity TH, absorbance (O.D.) at 405 nm (Thrombin (TH)) [O.D.] | Km (Human Thrombin) [µM] | selectivity (in words) [3] | Km (Human Plasmin) [µM] |
| --- | --- | --- | --- | --- | --- | --- | --- | --- | --- | --- | --- | --- | --- | --- |
| Cc1ccc(S(=O)(=O)NCC(=O)N2CCC[C@H]2C(=O)N[C@@H](CCCCN)C(=O)Nc2ccc([N+](=O)[O-])cc2)cc1 [CHR-PL, Tos-Gly-Pro-Lys-PNA, reference compound] (HELM PEPTIDE1{[Cc1ccc(S(=O)(=O)[*:2])cc1].G.P.K.[O=[N+]([O-])c1ccc(N[*:1])cc1]}$$$$V2.0) | 0.647 | 0.026 | 0.069 | smaller than that of S-2251 | 6.0 × 10^-6 mole/min/Cu | 21.628 × 10^-3 | 60.067 × 10^7 | 1.889 | considerably reacts | 0.004 | 0.057 | – | – | – |
| Cc1ccc(C(=O)NCCCC[C@@H](N)C(=O)N[C@@H](Cc2ccccc2)C(=O)N[C@@H](CCCCN)C(=O)Nc2ccc([N+](=O)[O-])cc2)cc1 [NPN-10] | 0.335 | 0.006 | 0.001 | – | – | – | 26.218 × 10^7 | 14.764 | – | 0.011 | 0.001 | – | – | – |
| NCCCC[C@H](NC(=O)[C@H](Cc1ccccc1)NC(=O)[C@H](N)CCCCNS(=O)(=O)c1ccc2ccccc2c1)C(=O)Nc1ccc([N+](=O)[O-])cc1 [NPN-11] | 0.171 | 0.005 | 0.001 | – | – | – | 23.895 × 10^7 | 11.660 | – | 0.001 | 0 | – | – | – |
| N=C(N)NCCC[C@H](NC(=O)[C@@H]1CCCCN1C(=O)[C@H](N)Cc1ccccc1)C(=O)Nc1ccc([N+](=O)[O-])cc1 [S-2238] | – | – | – | – | – | – | – | – | – | – | – | 7 | – | – |
| CC(C)C[C@H](NC(=O)[C@H](N)C(C)C)C(=O)N[C@@H](CCCCN)C(=O)Nc1ccc([N+](=O)[O-])cc1 [S-2251, H-D-Val-Leu-Lys-PNA, reference compound] (HELM PEPTIDE1{[dV].L.K.[O=[N+]([O-])c1ccc(N[*:1])cc1]}$$$$V2.0) | 0.306 | 0.007 | 0.001 | – | 4.0 × 10^-6 mole/min/Cu | 11.449 × 10^-3 | 39.876 × 10^7 | 1.000 | – | 0.017 | 0.001 | – | comparatively good selectivity | 300 |
